We go through 47 molecules from patent US20160168140A1, “HETEROCYCLIC COMPOUNDS AS ANTIBIOTIC POTENTIATORS” (priority 2014, published 2016).

Structures are written as SMILES.

One experiment deals with Acinetobacter baumannii (Ab23). The experiment in a line: MIC shift assay of antibiotics (broth microdilution). It counts as cell-based. The conditions noted are these: compound concentration 2 μM; fold shift of colistin MIC; nc = no changeover or no shift. Summed up: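 Following a modified Wiegand broth microdilution protocol, colistin serial dilutions with or without test compound were set up in round-bottom 96-well plates and inoculated with A. baumannii cells to a starting OD600 of 0.005. Plates were shaken at 37° C. for 18 to 20 h and read at OD600. The fold shift was calculated from colistin MIC alone versus colistin MIC with test compound, with growth and medium-only blank controls.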
Turning to `FC(F)(F)c1ccc2c(-c3ccc4ccccc4c3)n[nH]c2c1` [compound 540], the “colistin MIC shift, Ab23 at (compd concentration)” value (“colistin MIC shift, Ab23” below) was determined as 4x.

Still in this experiment, the particulars now being: compound concentration 4 μM; fold shift of colistin MIC; nc = no changeover or no shift.
For `Cc1c(Br)ccc2c(NCCCN(C)C)nc(-c3cc(Br)cc(C(F)(F)F)c3)nc12` [compound 512], the “colistin MIC shift, Ab23” value came to 64x. In the case of `Cc1cccc2c(NCCCN(C)C)nc(-c3cc(-c4ccccc4Cl)cc(C(F)(F)F)c3)nc12` [compound 513], the “colistin MIC shift, Ab23” value stood at 32x. The same measure, in the same setting: for `CN(C)CCCNc1nc(-c2cc(-c3ccccc3)cc(C(F)(F)F)c2)nc2c(C(F)(F)F)cccc12` [compound 514] the value was 16x. Turning to `CN(C)CCCNc1nc(-c2cc(Br)cc(C(F)(F)F)c2)nc2ccc(Br)cc12` [compound 515], the “colistin MIC shift, Ab23” value is on record as 8x. With `Clc1ccc2c(-c3cccc(-c4ccccc4)c3)n[nH]c2c1` [compound 526], the “colistin MIC shift, Ab23” value worked out at 1x.

Regarding `FC(F)(F)c1ccc2c(-c3ccc(Cl)c(Cl)c3)n[nH]c2c1` [compound 541], the “colistin MIC shift, Ab23” value is listed as 32x. Still for that read-out and setting: for `FC(F)(F)c1ccc2c(-c3cccc(Cl)c3Cl)n[nH]c2c1` [compound 543] the value was 1x; for `Fc1cc(C(F)(F)F)ccc1-c1n[nH]c2cc(C(F)(F)F)ccc12` [compound 544], 8x. As to `CN(C)CCCNc1nc(-c2cn(Cc3ccccc3)c3c(Cl)cccc23)nc2c(F)cccc12` [compound 565], the “colistin MIC shift, Ab23” value is listed as 2-4x. The same measure, in the same setting: as for `CN(C)CCCNc1nc(-c2cn(Cc3ccccc3)c3c(Cl)cccc23)nc2c(Cl)cccc12` [compound 567], the figure is 16x; as for `CN(C)CCCNc1nc(-c2cn(Cc3ccccc3)c3c(Cl)cccc23)nc2c(Br)cccc12` [compound 569], 8x. Same read-out and setting: for `CN(C)CCCNc1nc(-c2cn(Cc3ccccc3)c3c(Cl)cccc23)nc2c(-c3ccncc3)cccc12` [compound 571] the value was 4x; for `Cc1ccc(Cn2cc(-c3nc(NCCCN(C)C)c4cccc(C)c4n3)c3cccc(Cl)c32)cc1` [compound 573], 16x; for `Cc1cccc(Cn2cc(-c3nc(NCCCN(C)C)c4cccc(C)c4n3)c3cccc(Cl)c32)c1` [compound 575], 16x. The same measure, in the same setting: for `Cc1cccc2c(NCCCN(C)C)nc(-c3cn(Cc4ccc(Cl)cc4)c4c(Cl)cccc34)nc12` [compound 577] the value was 16x; for `Cc1cccc2c(NCCCN(C)C)nc(-c3cn(Cc4cccc(Cl)c4)c4c(Cl)cccc34)nc12` [compound 579], 16x; for `CNCCCNc1nc(-c2cn(Cc3ccccc3)c3c(Cl)cccc23)nc2c(C)cccc12` [compound 580], 8x.

Still in this experiment, the particulars now being: compound concentration 10 μM; fold shift of colistin MIC; nc = no changeover or no shift.
Turning to `Cc1ccc2nc(-c3cc(Br)cc(C(F)(F)F)c3)nc(NCCCN(C)C)c2c1` [compound 516], the “colistin MIC shift, Ab23” value turned out to be 16x.

On to `FC(F)(F)c1cccc(-c2cccc(-c3n[nH]c4ccc(Cl)cc34)c2)c1` [compound 525], for which the “colistin MIC shift, Ab23” value is reported as 1x. Regarding `FC(F)(F)c1ccc2c(-c3cccc(-c4ccc(Cl)c(Cl)c4)c3)n[nH]c2c1` [compound 527], the “colistin MIC shift, Ab23” value came out at 8x.

For `Fc1cc(-c2cccc(-c3n[nH]c4cc(C(F)(F)F)ccc34)c2)ccc1C(F)(F)F` [compound 528], the “colistin MIC shift, Ab23” value was 8x. For `FC(F)(F)c1cccc(-c2cccc(-c3n[nH]c4cc(C(F)(F)F)ccc34)c2)c1` [compound 529], the “colistin MIC shift, Ab23” value is given as 8x. For `FC(F)(F)c1ccc2c(-c3cccc(-c4cc(Cl)cc(Cl)c4)c3)n[nH]c2c1` [compound 530], the “colistin MIC shift, Ab23” value came to 4x.

`Fc1cc(C(F)(F)F)ccc1-c1cccc(-c2n[nH]c3cc(C(F)(F)F)ccc23)c1` [compound 531]: the “colistin MIC shift, Ab23” value is reported as 4x.

In the case of `Clc1ccc2[nH]nc(-c3cccc(-c4ccc(Cl)c(Cl)c4)c3)c2c1` [compound 532], the “colistin MIC shift, Ab23” value is reported as 4x. The same measure, in the same setting: as for `Clc1cccc(Cn2nc(-c3cccc(-c4ccccc4)c3)c3cc(Cl)ccc32)c1` [compound 533], the figure is 1x; as for `Fc1ccc2c(-c3cccc(Cl)c3)n[nH]c2c1` [compound 534], 1x; as for `Cc1cccc(-c2n[nH]c3cc(F)ccc23)c1` [compound 535], 1x.

As to `FC(F)(F)c1cccc(-c2n[nH]c3cc(C(F)(F)F)ccc23)c1` [compound 536], the “colistin MIC shift, Ab23” value amounted to 16x. For the molecule `N#Cc1cccc(-c2n[nH]c3cc(F)ccc23)c1` [compound 538], the “colistin MIC shift, Ab23” value was determined as 1x.

On to `Fc1cc(-c2n[nH]c3ccc(Cl)cc23)ccc1C(F)(F)F` [compound 539], for which the “colistin MIC shift, Ab23” value was found to be 4x. Regarding `FC(F)(F)c1ccc2c(-c3ccc(Cl)c(Cl)c3)nn(Cc3ccc(Cl)cc3)c2c1` [compound 542], the “colistin MIC shift, Ab23” value was determined as 1x. The same measure, in the same setting: as for `FC(F)(F)c1ccc2c(-c3ccc(Cl)c(Cl)c3)nn(Cc3cccc(Cl)c3)c2c1` [compound 545], the figure is 1x; as for `Fc1cc(-c2n[nH]c3cc(C(F)(F)F)ccc23)ccc1C(F)(F)F` [compound 546], 1x; as for `FC(F)(F)c1ccc2c(-c3ccccc3C(F)(F)F)n[nH]c2c1` [compound 547], 1x. The same measure, in the same setting: as for `FC(F)(F)c1cc(Br)cc(-c2n[nH]c3cc(C(F)(F)F)ccc23)c1` [compound 548], the figure is 16x. `Fc1ccc(-c2n[nH]c3cc(C(F)(F)F)ccc23)cc1C(F)(F)F` [compound 549]: the “colistin MIC shift, Ab23” value was 32x. Consider `Fc1cc(-c2n[nH]c3cc(C(F)(F)F)ccc23)cc(C(F)(F)F)c1` [compound 550], for which the “colistin MIC shift, Ab23” value amounted to 64x.

As to `FC(F)(F)c1cc(Cl)cc(-c2n[nH]c3cc(C(F)(F)F)ccc23)c1` [compound 551], the “colistin MIC shift, Ab23” value was found to be 32x. In the case of `COc1cc(-c2n[nH]c3cc(C(F)(F)F)ccc23)cc(C(F)(F)F)c1` [compound 552], the “colistin MIC shift, Ab23” value is 8x. In the case of `COC(=O)c1cc(-c2n[nH]c3cc(C(F)(F)F)ccc23)cc(C(F)(F)F)c1` [compound 553], the “colistin MIC shift, Ab23” value is 1x. Regarding `Nc1cc(-c2n[nH]c3cc(C(F)(F)F)ccc23)cc(C(F)(F)F)c1` [compound 554], the “colistin MIC shift, Ab23” value turned out to be 8x.

As for `FC(F)(F)c1ccc2[nH]nc(-c3ccc(Cl)c(Cl)c3)c2c1` [compound 555], the “colistin MIC shift, Ab23” value is listed as 32x. Still for that read-out and setting: as for `O=C(c1ccc(Cl)c(Cl)c1)n1nc(-c2ccc(Cl)c(Cl)c2)c2ccc(C(F)(F)F)cc21` [compound 558], the figure is 1x. For `Clc1ccc(-c2n[nH]c3cc(Br)ccc23)cc1Cl` [compound 559], the “colistin MIC shift, Ab23” value is 8x. Turning to `CN(C)CCCNc1nc(-c2cn(Cc3ccccc3)c3c(Cl)cccc23)nc2ccccc12` [compound 563], the “colistin MIC shift, Ab23” value turned out to be 8x.
